{"source": "patent US8895605B2", "about": "“Pyrrolidine-substituted flavones as radio-sensitizers for use in the treatment of cancer” (Piramal Enterprises Limited, priority 2009, dated 2014)", "system": "FaDu (human head and neck cancer) cells", "assay": "In-vitro MTS assay (cytotoxicity, Compound A alone and with radiation)", "format": "cell-based", "settings": "for cytotoxicity at 0.7 µM / cytotoxicity at 1 µM / cytotoxicity at 2 µM: FaDu, no radiation; for cytotoxicity at 0.7 µM: 0.7 μM Compound A (IC30) alone; for cytotoxicity at 1 µM: 1 μM Compound A (IC50) alone; for cytotoxicity at 2 µM: 2 μM Compound A (IC70) alone; for Combination index (CI): CompuSyn", "description": "The assay has been carried out according to the method described in Molecular Cancer Therapeutics, 2007, 6(9); the disclosure of which is incorporated by reference for the teaching of the assay. MTS (Promega, Cat #G1111) is a tetrazolium compound ((3-(4,5-dimethylthiazol-2-yl)-5-(3-carboxymethoxyphenyl)-2-(4-sulphophenyl)-2H-tetrazolium, inner salt; MTS) for use in colorimetric assays for determining the number of viable cells in proliferation, cytotoxicity or chemosensitivity assays. This is used with an electron coupling reagent PMS (Phenazine methosulfate). MTS is bioreduced by cells into a formazan that is soluble in tissue culture medium. The absorbance of the formazan at 490 nm can be measured directly from 96 well assay plates without additional processing. Dehydrogenase enzymes found in metabolically active cells accomplish the conversion of MTS into the aqueous soluble formazan. The quantity of formazan product as measured at 490 nm absorbance is directly proportional to the number of living cells in culture. Before testing the effect of Compound A on radiosensitivity of FaDu (human head and neck cancer, ATCC, USA) cells, the dose dependent cytotoxicity of Compound A alone was determined using MTS assay. Tumor cells were incubated in the presence of various concentrations of Compound A for 48 h and subjected to MTS assay. […] The Fa-Du (human head and neck cancer, ATCC, USA) cells were seeded at density of 1500 cells/well in 180 μL of MEM (minimum essential medium) in tissue culture grade 96-well plate and allowed to grow for 24 h in humidified 5% CO2 incubator at 37±1° C. Three identical groups of cells were made. After a time interval of 24 h after seeding, different wells of the first and second group of cells were irradiated at room temperature at dose of 2, 4, 6, 8 and 10 Gy respectively. The second group was further treated 24 h after irradiation (i.e. on the third day of the experiment) with IC30 concentration of Compound A. The third group was treated on the third day of the experiment, with IC30 concentration of Compound A alone. In order to obtain IC30 concentration (0.7 μM) of Compound A in any well, 20 μL of a stock solution of concentration 10×IC30, (i.e. 7 μM) was added to the well (dissolved first in DMSO and then in cell medium, final DMSO concentration should not exceed 0.5%) and diluted to 200 μL with MEM. The wells were incubated for 48 h and 96 h respectively, in humidified 5% CO2 incubator at 37±1° C. After completion of 48 h and 96 h respectively, the medium was removed from all wells and fresh MEM was added and the plates were incubated further for additional 4-6 days or for total of 8-10 days from the start of the experiment. At the end of the experiment, the medium was removed from all wells and 20 μL of MTS (2 mg/ml in phosphate buffer saline, pH 6-6.5 and filter sterilized) and 1 μL of PMS (3 mM in PBS, pH 7.3 and filter sterilized) was added per well along with the cell medium to adjust the total volume to 200 μL/well. The plate was incubated for 2-4 h in humidified 5% CO2 incubator at 37±1° C. The plate was read at 490 nm on Spectrophotometer (SpectraMax, Molecular Devices, USA), and the percentage cytotoxicity using SoftMax, software for SpectraMax was calculated. The above experiment was repeated using IC50 and IC70 concentrations of Compound A. The enhancement in radiation effects in FaDu cell line as evaluated using the CompuSyn software by Chou and Talalay, described in Pharmacological Reviews, 2006, 58, 621-681, which is incorporated herewith by reference. Combination index (CI) is used to evaluate if a combination is additive, synergistic or antagonistic. CI<1 is synergistic, CI=1 is additive and CI>1 is antagonistic. For example, at a treatment of 48 h with a concentration of IC70 of Compound A, the combination was synergistic (CI=0.7) at all the doses of radiation. The combination index in both the cases ie. […]", "key": {"[1]": {"settings": "Compound A alone, 48 h incubation, FaDu cells"}, "[2]": {"settings": "Homo sapiens, 48 h, read-out: % cytotoxicity 48 h after Compound A treatment"}, "[3]": {"settings": "Homo sapiens, 96 h, read-out: % cytotoxicity 96 h after Compound A treatment"}}, "note": "Read-outs that look alike come from different tables or passages of the source.", "data": [{"smiles": "CN1CC[C@@H](c2c(O)cc(O)c3c(=O)cc(-c4ccccc4Cl)oc23)[C@@H]1CO.Cl", "note": "[Compound A, (+)-trans-2-(2-Chlorophenyl)-5,7-dihydroxy-8-(2-hydroxymethyl-1-methyl-pyrrolidin-3-yl)-chromen-4-one hydrochloride]", "values": [{"measurement": "% cytotoxicity 48 h after Compound A treatment", "setting": "2 Gy radiation, then 0.7 μM Compound A (IC30) 24 h after radiation, 48 h", "result": 23, "unit": "%"}, {"measurement": "% cytotoxicity 96 h after Compound A treatment", "setting": "2 Gy radiation, then 0.7 μM Compound A (IC30) 24 h after radiation, 96 h", "result": 15, "unit": "%"}, {"measurement": "% cytotoxicity 48 h after Compound A treatment", "setting": "2 Gy radiation, then 1 μM Compound A (IC50) 24 h after radiation, 48 h", "result": 35, "unit": "%"}, {"measurement": "% cytotoxicity 48 h after Compound A treatment", "setting": "2 Gy radiation, then 2 μM Compound A (IC70) 24 h after radiation, 48 h", "result": 79, "unit": "%"}, {"measurement": "% cytotoxicity 96 h after Compound A treatment", "setting": "2 Gy radiation, then 2 μM Compound A (IC70) 24 h after radiation, 96 h", "result": 98, "unit": "%"}, {"measurement": "% cytotoxicity 48 h after Compound A treatment", "setting": "4 Gy radiation, then 0.7 μM Compound A (IC30) 24 h after radiation, 48 h", "result": 35, "unit": "%"}, {"measurement": "% cytotoxicity 96 h after Compound A treatment", "setting": "4 Gy radiation, then 0.7 μM Compound A (IC30) 24 h after radiation, 96 h", "result": 31, "unit": "%"}, {"measurement": "% cytotoxicity 48 h after Compound A treatment", "setting": "4 Gy radiation, then 1 μM Compound A (IC50) 24 h after radiation, 48 h", "result": 50, "unit": "%"}, {"measurement": "% cytotoxicity 96 h after Compound A treatment", "setting": "4 Gy radiation, then 1 μM Compound A (IC50) 24 h after radiation, 96 h", "result": 37, "unit": "%"}, {"measurement": "% cytotoxicity 48 h after Compound A treatment", "setting": "4 Gy radiation, then 2 μM Compound A (IC70) 24 h after radiation, 48 h", "result": 86, "unit": "%"}, {"measurement": "% cytotoxicity 96 h after Compound A treatment", "setting": "4 Gy radiation, then 2 μM Compound A (IC70) 24 h after radiation, 96 h", "result": 96, "unit": "%"}, {"measurement": "% cytotoxicity 48 h after Compound A treatment", "setting": "6 Gy radiation, then 0.7 μM Compound A (IC30) 24 h after radiation, 48 h", "result": 64, "unit": "%"}, {"measurement": "% cytotoxicity 96 h after Compound A treatment", "setting": "6 Gy radiation, then 0.7 μM Compound A (IC30) 24 h after radiation, 96 h", "result": 60, "unit": "%"}, {"measurement": "% cytotoxicity 48 h after Compound A treatment", "setting": "6 Gy radiation, then 1 μM Compound A (IC50) 24 h after radiation, 48 h", "result": 73, "unit": "%"}, {"measurement": "% cytotoxicity 96 h after Compound A treatment", "setting": "6 Gy radiation, then 1 μM Compound A (IC50) 24 h after radiation, 96 h", "result": 77, "unit": "%"}, {"measurement": "% cytotoxicity 48 h after Compound A treatment", "setting": "6 Gy radiation, then 2 μM Compound A (IC70) 24 h after radiation, 48 h", "result": 89, "unit": "%"}, {"measurement": "% cytotoxicity 96 h after Compound A treatment", "setting": "6 Gy radiation, then 2 μM Compound A (IC70) 24 h after radiation, 96 h", "result": 96, "unit": "%"}, {"measurement": "% cytotoxicity 48 h after Compound A treatment", "setting": "8 Gy radiation, then 0.7 μM Compound A (IC30) 24 h after radiation, 48 h", "result": 79, "unit": "%"}, {"measurement": "% cytotoxicity 96 h after Compound A treatment", "setting": "8 Gy radiation, then 0.7 μM Compound A (IC30) 24 h after radiation, 96 h", "result": 69, "unit": "%"}, {"measurement": "% cytotoxicity 48 h after Compound A treatment", "setting": "8 Gy radiation, then 1 μM Compound A (IC50) 24 h after radiation, 48 h", "result": 85, "unit": "%"}, {"measurement": "% cytotoxicity 96 h after Compound A treatment", "setting": "8 Gy radiation, then 1 μM Compound A (IC50) 24 h after radiation, 96 h", "result": 84, "unit": "%"}, {"measurement": "% cytotoxicity 48 h after Compound A treatment", "setting": "8 Gy radiation, then 2 μM Compound A (IC70) 24 h after radiation, 48 h", "result": 91, "unit": "%"}, {"measurement": "% cytotoxicity 96 h after Compound A treatment", "setting": "8 Gy radiation, then 2 μM Compound A (IC70) 24 h after radiation, 96 h", "result": 95, "unit": "%"}, {"measurement": "% cytotoxicity 48 h after Compound A treatment", "setting": "10 Gy radiation, then 0.7 μM Compound A (IC30) 24 h after radiation, 48 h", "result": 80, "unit": "%"}, {"measurement": "% cytotoxicity 96 h after Compound A treatment", "setting": "10 Gy radiation, then 0.7 μM Compound A (IC30) 24 h after radiation, 96 h", "result": 85, "unit": "%"}, {"measurement": "% cytotoxicity 48 h after Compound A treatment", "setting": "10 Gy radiation, then 1 μM Compound A (IC50) 24 h after radiation, 48 h", "result": 86, "unit": "%"}, {"measurement": "% cytotoxicity 96 h after Compound A treatment", "setting": "10 Gy radiation, then 1 μM Compound A (IC50) 24 h after radiation, 96 h", "result": 90, "unit": "%"}, {"measurement": "% cytotoxicity 48 h after Compound A treatment", "setting": "10 Gy radiation, then 2 μM Compound A (IC70) 24 h after radiation, 48 h", "result": 91, "unit": "%"}, {"measurement": "% cytotoxicity 96 h after Compound A treatment", "setting": "10 Gy radiation, then 2 μM Compound A (IC70) 24 h after radiation, 96 h", "result": 94, "unit": "%"}, {"measurement": "IC30", "setting": "[1]", "result": 700, "unit": "nM"}, {"measurement": "IC70", "setting": "[1]", "result": 2000, "unit": "nM"}, {"measurement": "cytotoxicity at 0.7 µM", "setting": "[2]", "result": 8, "unit": "%"}, {"measurement": "cytotoxicity at 0.7 µM", "setting": "[3]", "result": 4, "unit": "%"}, {"measurement": "cytotoxicity at 1 µM", "setting": "[2]", "result": 20, "unit": "%"}, {"measurement": "cytotoxicity at 1 µM", "setting": "[3]", "result": 25, "unit": "%"}, {"measurement": "cytotoxicity at 2 µM", "setting": "[2]", "result": 66, "unit": "%"}, {"measurement": "cytotoxicity at 2 µM", "setting": "[3]", "result": 83, "unit": "%"}, {"measurement": "IC50", "setting": "Homo sapiens, Compound A alone, 48 h incubation, FaDu cells", "result": 1000, "unit": "nM"}, {"measurement": "Enhancement in radiation effects (combination class)", "setting": "radiation 6, 8 and 10 Gy followed by Compound A at IC30 for 48 h", "result": "synergistic (CI<1 is synergistic)"}, {"measurement": "Enhancement in radiation effects (combination class)", "setting": "radiation 6, 8 and 10 Gy followed by Compound A at IC50 for 48 h", "result": "synergistic (CI<1 is synergistic)"}, {"measurement": "Combination index (CI)", "setting": "radiation + Compound A at IC30, 96 h treatment, all doses of radiation", "result": 1}, {"measurement": "Combination index (CI)", "setting": "radiation + Compound A at IC50, 96 h treatment, all doses of radiation", "result": 1}, {"measurement": "Combination index (CI)", "setting": "radiation + Compound A at IC70, 48 h treatment, all doses of radiation", "result": 0.7}, {"measurement": "Combination index (CI)", "setting": "radiation + Compound A at IC70, 96 h treatment, at 2, 4 and 6 Gy", "result": "< 1"}]}]}
